# Measurements taken from patent US7683055B2, “Lanthionine-related compounds for the treatment of inflammatory diseases” (Oklahoma Medical Research Foundation, priority 2006, dated 2010).
# How the values were obtained:
# NSC-34 cells = test: NSC-34 viability after H2O2 challenge (tetrazolium reduction); assay type: cell-based, mouse; conditions: for protection against H2O2: 0.5 mM, 6 h pretreatment, 1 mM H2O2, viability 24 h later
# Protocol: NSC-34 cells were challenged directly with H2O2 for 24 h and the viability was assessed by tetrazolium reduction assay.
# Furthermore, the invention contemplates that cytoprotection might be achieved by providing metabolic precursors to LK, rather than direct addition of the compound. For example, the inventor has studied the effects of NSC-34 cells treated with ethyl pyruvate in the presence or absence of lanthionine for 6 h prior to challenge with H2O2 and has assayed the viability of these cells 24 h later (FIG. 10). As reported in previous studies, ethyl pyruvate alone was protective against peroxide-induced cell death (Desagher et al., 1997; Nakamichi et al., 2005) with complete protection at ethyl pyruvate concentrations >1 mM (approximately 2-fold higher than ambient cell culture medium pyruvate concentrations; data not shown).
# (R)-LKE1 protects NSC-34 motoneuron x neuroblastoma hybrid cells from hydrogen peroxide toxicity (FIG. 4). Cells were treated with the indicated concentration of (R)-LKE1. Thirty minutes later cells were challenged with the indicated concentration of hydrogen peroxide. Cell viability was assayed 24 hours later by tetrazolium reduction using a commercially available kit (Promega).
# NSC-34 motor neuron-like cells, derived through the fusion of a neuroblastoma cell line with embryonic mouse motor neurons (Cashman et al., 1992), were grown in Dulbeco's modified essential medium (DMEM) plus 5% fetal bovine serum (FBS) and 1% penicillin plus 1% streptomycin (Pen/Strep). Recombinant TNFα and interferon gamma (IFNγ) were purchased from BD Biosciences (Pasadena Calif. USA). Lanthionine was purchased from Sequoia Research Products Ltd. (Pangbourne, UK). All other reagents were of the highest available commercial purity.
# NSC-34 cells were exposed to 1 mM H2O2 with or without ethyl-pyruvate and/or lantionine (LK).
# EOC-20 microglia = test: TNFα-stimulated nitrite production in EOC-20 microglia (Griess assay); assay type: cell-based, mouse; conditions: for net suppression of nitrite: TNFα-stimulated, nitrite measured 24 h later
# Protocol: Mouse EOC-20 microglia (American Tissue Type Collection, Gaithersville Md. USA) (Hensley et al., 2003; Walker et al., 1995) were grown in DMEM containing 20% L929 fibroblast-supplemented medium. Nitrite production by cytokine stimulated microglia was measured in cell culture medium using the Griess diazotization reaction as previously reported (Hensley et al., 2003; West et al., 2004).
# The efficacy of (R)-LKE1 and (R)-LK as inhibitors of microglial cell activation in response to pro-inflammatory cytokines is shown in FIGS. 1A & 1B. EOC-20 murine microglial cells were pretreated 30 minutes with test compounds (e.g. (R)-LK or (R)-LKE1) dissolved in DMSO and diluted 1:200 into cell culture medium; or with DMSO vehicle only. Cells were then challenged with cytokine and allowed to incubate undisturbed in the cell culture incubator for 24 h prior to Griess assay. The lanthionine ketimine ester in this case is the structure shown above as (R)-LKE1. After drug treatment cells were then stimulated with 40 ng/mL recombinant murine tumor necrosis factor alpha (TNF α) plus 50U/mL interferon gamma (IFNγ). Nitrite (NO2^−) was measured in the cell culture medium 24 hours later, as an index of nitric oxide production. Cell viability was then assayed in the same cultures using a commercially available tetrazolium reduction assay (Promega OneStep™; Promega, Gaithersburg Md.). Cell culture methods were those published by the inventor (Hensley et al., 2003; West et al., 2004).
# In a EOC-20 microglial assay the cells were stimulated with TNFα in the presence or absence of 100 microM (R)- or (S)-LK, and nitrite was measured 24 h later, the net suppression of nitrite was 13% by (S)-LK and 15% by (R)-LK.
# The reduced lanthionine ketimine (i.e., TMDCA) was also tested against TNFα-stimulated nitrite production in the EOC-20 screen.
# synaptosomal membranes = conditions: read-out: affinity of binding to synaptosomal membranes; cited from earlier work
# HT4 cells = test: glutamate toxicity in HT4 cells (LDH leakage); assay type: cell-based
# Protocol: FIG. 13. (R)-LK protects HT4 cells against excitotoxicity. Determination of cell viability: HT4 cells were seeded in 6 well plates (1×10^7 cell/well). After 24 h, cell media was changed and (R)-LK (in DMSO) was used for 1 h prior to glutamate challenge. Powdered (R)-LK was dissolved in DMSO just before use. The viability of cells in culture was assessed by measuring the leakage of lactate dehydrogenase (LDH) from cells to media 18-24 h following glutamate treatment using the in vitro toxicology assay kit from Sigma Chemical Co. (St. Louis, Mo., USA). LDH leakage was determined using the following equation: % of total LDH leaked=(LDH activity in the cell culture media/total LDH activity) where total LDH activity=LDH activity in cell monolayer+LDH activity of detached cells+LDH activity in the cell culture media.
# FIG. 14. (R)-LKE1 protects HT4 cells against excitotoxicity. […] The viability of cells in culture was assessed by measuring the leakage of lactate dehydrogenase (LDH) from cells to media 18-24 h following glutamate treatment using the in vitro toxicology assay kit from Sigma Chemical Co. (St. Louis, Mo., USA). LDH leakage was determined using the following equation: % of total LDH leaked=(LDH activity in the cell culture media/total LDH activity) where total LDH activity=LDH activity in cell monolayer+LDH activity of detached cells+LDH activity in the cell culture media. […]
compound,measurement,setting,value
O=C(O)C1=N[C@H](C(=O)O)CSC1 [(R)-LK],protection from H2O2-induced cell death,NSC-34 cells; H2O2 challenge 24 h,protects NSC-34 motor-neuron like cells from hydrogen peroxide toxicity
same,net suppression of nitrite,EOC-20 microglia; 100 microM,15%
O=C(O)C1=CSC[C@H](C(=O)O)N1 [(S)-LK],net suppression of nitrite,EOC-20 microglia; 100 microM,13%
"O=C(O)C1CSCC(C(=O)O)N1 (centres unmarked) [TMDCA, thiomorpholine dicarboxylic acid]",inhibition of the cytokine effect,"EOC-20 microglia; 100 microM, TNFα-stimulated nitrite production",about 32.5%
same,"microglial activation, % of the maximum","EOC-20 microglia; 100 microM, TNFα-stimulated nitrite production, +/- SD",67.5+/−3.8%
CCOC(=O)C(C)=O [ethyl pyruvate],protection against H2O2,NSC-34 cells,significant but partial protection
same,concentration giving complete protection against peroxide-induced cell death,NSC-34 cells; data not shown,> 1 mM
N[C@@H](CSC[C@H](N)C(=O)O)C(=O)O [lanthionine],protection against H2O2,NSC-34 cells,no protective effect
lanthionine ketimine [LK],Kd,synaptosomal membranes,0.05 µM
same,glutamate toxicity (LDH release),HT4 cells,significantly diminished glutamate toxicity
same,inhibition of nitrite production,EOC-20 microglia; TNFα-stimulated EOC-20 microglia,inhibited nitrite production
